Data reported in patent US11485980B2, “Method of meristem excision and transformation” (Monsanto Technology LLC, priority 2007, dated 2022).

What was measured:
cotton explants [1] = test: Selection of transformed cotton explants with selective agent in tissue culture medium
cotton explants [2] = test: Spectinomycin in co-cultivation medium during Agrobacterium-mediated transformation; conditions: spectinomycin 50-100 ppm included in the co-cultivation medium; FIG. 8
Protocol: After the PlantconTM was closed, it was inserted into an appropriately sized holder, which was placed into a sonicator (e.g. L&R Ultrasonics QS140; L&R Manufacturing Co., […].; or a Honda […] sonicator, Honda, Denshi Japan). […] Sigma 526-36-23; Sigma Chemical Co, St. Louis, Mo.). After up to 5 min of sonication, the PlantconTM was placed securely on a shaker at 65-70 rpm or higher for 10 min for incubation. After inoculation, the Agrobacterium inoculum was removed from the PlantconTM. […] The INO medium may also be supplemented with plant growth regulators such as gibberellins (GA3), auxins (e.g. NAA, IBA, IAA, 2,4-D, dicamba, etc), cytokinins (e.g.

Row | SMILES | Stably transformed plants produced at concentrations (ppm) (cotton explants [1]; selection agent in tissue culture medium, machine excised cotton explants after Agrobacterium co-cultivation) | Appearance of non-transformed tissues under selection (cotton explants [1]; spectinomycin selection, transformed tissues green and properly developing, FIG. 5) | Effect on transformation frequency (TF) (cotton explants [2])
1 | COc1c(Cl)ccc(Cl)c1C(=O)O [dicamba] | 0.3 | – | –
2 | CN[C@@H]1[C@H](O)[C@H](NC)[C@H]2O[C@@]3(O)C(=O)C[C@@H](C)O[C@H]3O[C@@H]2[C@H]1O [spectinomycin] | – | bleached and often malformed | enhanced TF
